Here are results for 1 molecule from patent publication US20190374478A1, “Ultrastable Gold Nanoparticles For Drug Delivery Applications And Synthesis Thereof” (Université Laval, priority 2016, published 2019).

Series [1] is described as follows: Encapsulation efficiency (indirect assay, magnetic bead removal, UV-visible/HPLC of supernatant). To be noted: 69 nM AuNPs. It counts as physicochemical. The procedure:
The AuNPs and the drug are brought into contact in a screw-cap 2 mL microtube, with magnetic bar stirring, at 37° C. for a time determined according to the kinetics of encapsulation obtained by UV-visible spectroscopy.
In the case of travoprost, an encapsulation time of five days was chosen according to the encapsulation kinetics determined by UV spectroscopy at 278 nm (FIG. 9).
The method used to determine the encapsulation efficiency rely on an indirect assay by evaluating what has not been encapsulated. Once the encapsulation is complete, the entire mixture is brought into contact with magnetic beads to allow the nanoparticles that contain the encapsulated drug to be removed from the medium. The residual supernatant is then analyzed by UV-visible spectroscopy and high-performance liquid chromatography (HPLC).
To do so, a solution of 0.0005% phosphate buffered saline Tween™ (PBS-T) was prepared. The magnetic beads were then cleaned and 100 μL of magnetic beads were placed in a 1.5 mL microtube. The beads were then magnetized, and the supernatant was removed.
1 mL of the prepared PBS-T was added to the beads, the beads were then suspended with a vigorous vortex for 30 seconds. The beads were then magnetized, and the supernatant was removed. […]
The final supernatant was analyzed by UV-Visible spectroscopy (λ=200-700 nm) and by high-performance liquid chromatography (HPLC).

The test system of series [2] is intraocular pressure in glaucomatous mice. The experiment in a line: Intraocular pressure in microbead-induced hypertensive glaucoma model. The format is in vivo, C57BL/6J mice. As for the experimental part: An in vivo glaucoma model involving the injection of exogenous microbeads into the anterior chamber was used (FIG. 17A). The injected beads partially block the trabecular meshwork resulting in intraocular pressure (IOP) elevation while causing no damage to the site of drug action. Two-month-old C57BL/6J mice were used. The IOP was followed with a tonometer (Tonolab®) specially designed for rodents. Animals were injected with 5 μL of microbeads with a dimeter of about 10 μm (7.2×10^6 microbeads/mL) in the anterior chamber of the left eye. For the encapsulation experiments, travoprost was solubilized in water/ethanol (50/50) in the presence of AuNPs. The solution was heated (65° C.) in order to evaporate the ethanol and to induce conformational changes of PEG molecules leading to a better encapsulation. The solution was thus completed with water until the initial volume. Hypertensive glaucoma was induced in adult C57BL/6 mice by injecting 5 μL of polystyrene microbeads (35,000 microbeads) with an average diameter of 10 μm in the anterior chamber of the eye. The dispersion of the microbeads at the level of the iridocorneal angle blocks the passage of the aqueous humor towards the trabecular meshwork (FIG. 17A). Mechanically, the decrease in drainage of the aqueous humor produces an increase in intraocular pressure which is measured with a tonometer of the Tonolab brand. […]

With `CC(C)OC(=O)CCC/C=C\C[C@@H]1[C@@H](/C=C/[C@@H](O)COc2cccc(C(F)(F)F)c2)[C@H](O)C[C@@H]1O` [travoprost], the “Percentage of encapsulated travoprost” value in series [1] (initial 80 μM travoprost) is “about 68.52%±4.032”; in series [1] (initial 120 μM travoprost), “about 67.98%±3.877”. Moreover, the “Level of intraocular pressure after 24 hours” value in series [2] (24 hours after single topical application) is “returned to a high level, similar to that before treatment”. For the same molecule, the “Effect on intraocular pressure” value in series [2] (single topical application, glaucomatous mice) is listed as “significantly but transiently decreased”.
